Structures can show the parent of a compound that is named as a salt. Where two headings read alike, the source gives them in different places.
Columns and labels:
[1] = biological target: T1, CDK4/cyclinD1 (Homo sapiens, UniProt P11802); test: Inhibition of CDK enzyme activity (ADP-Glo kinase assay); type: biochemical; details: 10 uM ATP, Rb protein substrate; read-out: IC50 CDK4/cyclinD
T1 construct: purchased Signalchem (US)
In short: (§1)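 Kinase reactions in 50 mM Tris-HCl pH 7.5 with MgCl2, EGTA, EDTA and DTT, at 10 µM ATP. CDK2/cyclinE and CDK5/p25 were used at 10 nM and CDK6/cyclinD3 at 50 nM with 0.125 mg/ml histone H1; CDK4/cyclinD1 was used at 20 nM with 0.125 mg/ml Rb protein. After 60 min at 30 °C, ADP was read by ADP-Glo luminescence and IC50 taken from % inhibition versus no-compound control.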

[2] = biological target: T2, CDK2/cyclinE (Homo sapiens, UniProt P24941); test: as above; type: biochemical; details: 10 uM ATP, histone H1 substrate
T2 construct: purchased Merck Millipore
In short: as §1

[3] = Blood brain barrier permeation; type: in vivo, ICR mice; details: male, ICR, mouse, po; for Kp at 1 h / Kp at 4 h: brain/plasma, read-out: B/P ratio
Experimental: Using 9-week-old male ICR mice, the compounds obtained in the above Examples were orally administered once at a dose of 10 mg/kg or 30 mg/kg, and after 1 hr and 4 hrs, the concentrations of the compounds in the blood and brain of the mice were determined. 3 ICR mice were assigned in each group. Plasma was separated from the blood obtained after sacrificing the mice at each time, the brain of the mice was extracted, and the […] was washed with PBS, followed by pulverizing the brain tissue. The blood was placed in a test tube containing heparin to prevent coagulation and then was centrifuged at 12,000 rpm at 4° C. for 3 min to give a supernatant from which plasma was collected. Brain tissue was weighed, and the brain was pulverized using Dounce's homogenizer after adding 3 times as much volume of PBS as the brain weight. Each of the obtained analytical samples was quantitatively analyzed using a tandem liquid chromatography-mass spectrometer (Tandem LC/MS/MS, API3000 & Agilent 1100 series). Brain permeability of a compound is expressed as a value obtained by dividing the concentration of the compound in the brain by the concentration of the compound in the plasma (B/P ratio), and when the B/P ratio is greater than 1, it means that the concentration in the brain is higher than the one in the blood.

[4] = test system: A549; test: Inhibition of cancer cell proliferation (MTT); type: cell-based, human; details: Homo sapiens, A549, 72 h
In short: (§2)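 Cells were seeded at 3000/well (A549, SK-N-SH and SH-SY5Y in DMEM, NCI-H23 in […], all with 10% FBS), allowed to attach for 16 h, then exposed to compounds at 0.004–10 uM for 72 h at 37 °C. MTT formazan was read at 535 nm, and GI50 was calculated relative to 0.08% DMSO controls.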

[5] = test system: NCI-H23; test: Inhibition of cancer cell proliferation (MTT); type: cell-based, human; details: Homo sapiens, NCI-H23, 72 h
In short: as §2

[6] = test system: T98G; test: Inhibition of cancer cell proliferation (MTT); type: cell-based, human
In short: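 Growth inhibition over 72 h was measured in attached cultures (3000 per well) with 0.08% DMSO as the control. Viable cells were detected with a 2 h MTT step, and the concentration giving 50% inhibition was taken as GI50.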

[7] = brain, 30 mg/kg, oral once 30 mg/kg, read-out: Concentration in the brain
[8] = plasma, 30 mg/kg, oral once 30 mg/kg, read-out: Concentration in the plasma
[9] = brain, 10 mg/kg, oral once 10 mg/kg, read-out: Concentration in the brain
[10] = plasma, 10 mg/kg, oral once 10 mg/kg, read-out: Concentration in the plasma

T1 sequence (P11802 whole entry): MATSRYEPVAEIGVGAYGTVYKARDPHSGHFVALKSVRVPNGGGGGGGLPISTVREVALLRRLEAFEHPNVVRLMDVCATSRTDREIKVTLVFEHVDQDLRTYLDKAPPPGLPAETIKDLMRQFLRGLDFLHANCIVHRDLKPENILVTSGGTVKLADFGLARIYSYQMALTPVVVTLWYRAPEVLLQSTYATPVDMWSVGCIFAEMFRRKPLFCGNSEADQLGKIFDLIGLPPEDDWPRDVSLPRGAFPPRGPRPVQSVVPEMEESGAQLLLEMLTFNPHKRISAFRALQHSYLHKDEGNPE
T1 sequence (P24385 whole entry partner): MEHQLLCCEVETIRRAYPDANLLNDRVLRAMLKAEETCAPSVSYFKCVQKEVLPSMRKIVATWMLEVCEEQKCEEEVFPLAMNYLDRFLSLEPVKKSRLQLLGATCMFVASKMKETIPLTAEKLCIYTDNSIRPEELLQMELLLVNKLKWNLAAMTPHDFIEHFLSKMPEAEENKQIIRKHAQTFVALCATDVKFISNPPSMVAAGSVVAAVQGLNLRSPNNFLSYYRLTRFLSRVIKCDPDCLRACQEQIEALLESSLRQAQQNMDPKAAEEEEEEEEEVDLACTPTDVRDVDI

| Structure (SMILES) | IC50 [1] [nM] | IC50 [2] [nM] | concentration at 1 h [3, 7] [ng/g] | concentration at 4 h [3, 7] [ng/g] | Kp at 1 h ([3]; 30 mg/kg, oral once 30 mg/kg) | Kp at 4 h ([3]; 30 mg/kg, oral once 30 mg/kg) | concentration at 1 h [3, 8] [ng/mL] | concentration at 4 h [3, 8] [ng/mL] | GI50 [4] [nM] | GI50 [5] [nM] | concentration at 1 h [3, 9] [ng/g] | concentration at 4 h [3, 9] [ng/g] | Kp at 1 h ([3]; 10 mg/kg, oral once 10 mg/kg) | Kp at 4 h ([3]; 10 mg/kg, oral once 10 mg/kg) | concentration at 1 h [3, 10] [ng/mL] | concentration at 4 h [3, 10] [ng/mL] | GI50 ([6]; 72 hrs) [nM] | GI50 ([6]; Homo sapiens, T98G, 72 h) [nM] |
| --- | --- | --- | --- | --- | --- | --- | --- | --- | --- | --- | --- | --- | --- | --- | --- | --- | --- | --- |
| Nc1cc(-c2ccc(O)c(-c3ccnc(N)n3)n2)ccn1 [Example 10, 2′-amino-6-(2-aminopyrimidin-4-yl)-[2,4′-bipyridin]-5-ol] | 203 | 2.6 | 129 | 23.2 | 1.56 | 2.78 | 82.6 | 8.3 |  |  |  |  |  |  |  |  |  |  |
| Nc1nccc(-c2nc(-c3ccnc(N)c3F)ccc2O)n1 [Example 8] | 108 | 2.1 | 144 | 70.9 | 1.53 | 2.41 | 94.3 | 29.4 |  |  |  |  |  |  |  |  | 190 |  |

Molecules with a lower IC50 [2], results first:

| IC50 [1] [nM] | IC50 [2] [nM] | concentration at 1 h [3, 7] [ng/g] | concentration at 4 h [3, 7] [ng/g] | Kp at 1 h ([3]; 30 mg/kg, oral once 30 mg/kg) | Kp at 4 h ([3]; 30 mg/kg, oral once 30 mg/kg) | concentration at 1 h [3, 8] [ng/mL] | concentration at 4 h [3, 8] [ng/mL] | GI50 [4] [nM] | GI50 [5] [nM] | concentration at 1 h [3, 9] [ng/g] | concentration at 4 h [3, 9] [ng/g] | Kp at 1 h ([3]; 10 mg/kg, oral once 10 mg/kg) | Kp at 4 h ([3]; 10 mg/kg, oral once 10 mg/kg) | concentration at 1 h [3, 10] [ng/mL] | concentration at 4 h [3, 10] [ng/mL] | GI50 ([6]; 72 hrs) [nM] | GI50 ([6]; Homo sapiens, T98G, 72 h) [nM] | Structure (SMILES) |
| --- | --- | --- | --- | --- | --- | --- | --- | --- | --- | --- | --- | --- | --- | --- | --- | --- | --- | --- |
| 855 | 1.5 |  |  |  |  |  |  |  |  |  |  |  |  |  |  |  |  | Nc1nccc(-c2ccc(O)c(-c3ccnc(N)n3)n2)n1 [Example 1, 2,6-bis(2-aminopyrimidin-4-yl)pyridin-3-ol] |
|  | 0.5 | 768 | 577 | 2.76 | 4.49 | 278 | 129 | 210 | 430 | 296 | 90.3 | 1.05 | 1.04 | 283 | 86.5 |  |  | Nc1nccc(-c2ccc(O)c(-c3ccnc(N)n3)n2)n1 [Example 61, 2,6-bis(2-aminopyrimidin-4-yl)pyridin-3-ol 3hydrochloride] |
| 125 | 0.3 |  |  |  |  |  |  | 20 | 40 | 3120 | 165 | 2.26 | 3.18 | 1380 | 52.1 |  | 60 | Cc1cc(-c2nc(-c3ccnc(N)c3F)ccc2O)nc(N)n1 [Example 71, 2′-amino-6-(2-amino-6-methylpyrimidin-4-yl)-3′-fluoro-[2,4′-bipyridin]-5-ol 3hydrochloride] |

Source: patent US20200190062A1, “HETEROCYCLIC COMPOUND AND PHARMACEUTICAL COMPOSITION COMPRISING SAME” (BEYONDBIO INC., priority 2015, published 2020)
